Measurements taken from the supplement of paper PMC8633005.

What was measured:
Experiment in all cases: drug sensitivity score (DSS) (DSS (unitless, 0-50 scale)); higher = more sensitive (stronger viability inhibition); extreme values may be limits of the assay
Conditions in all cases: 72 h; culture: 2D
FM-MEL-3 = tested on: FM-MEL-3
Outline: (§1)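 Patient-derived melanoma cultures and melanoma cell lines were grown in 2D in 384-well plates with a 527-compound oncology library at five concentrations spanning a 10,000-fold range, with 1000–1500 cells per well for the cultures. CellTiter-Glo luminescence gave viability after 72 h at 37 °C. The drug sensitivity score is a modified area-under-curve measure derived from dose-response curves fitted in the in-house Breeze software.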

FM-MEL-6 = tested on: FM-MEL-6
Outline: as §1

SK-MEL-28 = tested on: SK-MEL-28
Outline: as §1

WM165 = tested on: WM165
Outline: as §1

FM-MEL-2 = tested on: FM-MEL-2
Outline: as §1

WM852 = tested on: WM852
Outline: as §1

Bowes = tested on: Bowes
Outline: as §1

SK-MEL-2 = tested on: SK-MEL-2
Outline: as §1

| SMILES | drug sensitivity score (FM-MEL-3) | drug sensitivity score (FM-MEL-6) | drug sensitivity score (SK-MEL-28) | drug sensitivity score (WM165) | drug sensitivity score (FM-MEL-2) | drug sensitivity score (WM852) | drug sensitivity score (Bowes) | drug sensitivity score (SK-MEL-2) |
| --- | --- | --- | --- | --- | --- | --- | --- | --- |
| CCN(c1cc(-c2ccc(CN3CCOCC3)cc2)cc(C(=O)NCc2c(C)cc(C)[nH]c2=O)c1C)C1CCOCC1 [Tazemetostat] | 0 | 1.3 | 0 | 0 | 0 | 0 | 1.5 | 0 |
| CNC(=O)c1cc(COc2nnc(Nc3ccc(Cl)cc3)c3ccoc23)ccn1 [Telatinib] | 0 | 0.1 | 0 | 0 | 0 | 0.3 | 0 | 0 |
| Cn1nnc2c(C(N)=O)ncn2c1=O [Temozolomide] | 0 | 0 | 0 | 0 | 0 | 0 | 0 | 0 |
| CO[C@H]1C[C@@H]2CC[C@@H](C)[C@@](O)(O2)C(=O)C(=O)N2CCCC[C@H]2C(=O)O[C@H]([C@H](C)C[C@@H]2CC[C@@H](OC(=O)C(C)(CO)CO)[C@H](OC)C2)CC(=O)[C@H](C)/C=C(\C)[C@@H](O)[C@@H](OC)C(=O)[C@H](C)C[C@H](C)/C=C/C=C/C=C/1C [Temsirolimus] | 0 | 4.4 | 2.5 | 6 | 4 | 0 | 0 | 0 |
| COc1cc([C@@H]2c3cc4c(cc3[C@@H](O[C@@H]3O[C@@H]5CO[C@@H](c6cccs6)O[C@H]5[C@H](O)[C@H]3O)[C@H]3COC(=O)[C@H]23)OCO4)cc(OC)c1O [Teniposide] | 0 | 0 | 0 | 0 | 0 | 0 | 0 | 0 |
| CN1CCC(COc2cnc(-c3cccc(Cn4nc(-c5cccc(C#N)c5)ccc4=O)c3)nc2)CC1 [Tepotinib] | 0 | 0 | 0 | 0 | 0 | 0 | 0 | 0 |
| COc1cc2c(Nc3ccc(Cl)c(Cl)c3F)ncnc2cc1OC[C@@H]1C[C@@H]2CN(C)C[C@@H]2C1 [Tesevatinib] | 0.8 | 0.3 | 0.1 | 0.1 | 0.1 | 0 | 1.8 | 0 |
| O=C1CCC(N2C(=O)c3ccccc3C2=O)C(=O)N1 (stereo unspecified) [Thalidomide] | 0 | 0 | 0 | 0 | 0 | 0 | 0 | 0 |
| Nc1nc2[nH]cnc2c(=S)[nH]1 [Thioguanine] | 0 | 2.6 | 4.3 | 12.8 | 5.4 | 6.8 | 8.5 | 3.5 |
| O=c1sn(-c2cccc3ccccc23)c(=O)n1Cc1ccccc1 [Tideglusib] | 0 | 0 | 0 | 0 | 0 | 0 | 0 | 0 |
| Cn1cncc1[C@@](N)(c1ccc(Cl)cc1)c1ccc2c(c1)c(-c1cccc(Cl)c1)cc(=O)n2C [Tipifarnib] | 11.2 | 6.2 | 5 | 10.4 | 7.4 | 3.4 | 21.1 | 3.6 |
| CC#CC(=O)N1CC[C@@H](n2c(=O)n(-c3ccc(Oc4ccccc4)cc3)c3c(N)ncnc32)C1 [Tirabrutinib] | 0 | 0 | 0 | 0 | 0 | 0 | 2 | 0 |
| O=C1NC(=O)[C@@H](c2cn3c4c(cccc24)CCC3)[C@@H]1c1c[nH]c2ccccc12 [Tivantinib] | 2.3 | 3.2 | 2.1 | 3.1 | 1.9 | 3.1 | 3.6 | 3.8 |
| COc1cc2nccc(Oc3ccc(NC(=O)Nc4cc(C)on4)c(Cl)c3)c2cc1OC [Tivozanib] | 4.8 | 0.5 | 3.1 | 3.1 | 3.4 | 1.1 | 2.8 | 0 |
| C[C@@H]1CCN(C(=O)CC#N)C[C@@H]1N(C)c1ncnc2[nH]ccc12 [Tofacitinib] | 0 | 0 | 0 | 0 | 0 | 0 | 0 | 0 |
| CC[C@@]1(O)C(=O)OCc2c1cc1n(c2=O)Cc2cc3c(CN(C)C)c(O)ccc3nc2-1 [Topotecan] | 11 | 8.1 | 8.1 | 25.3 | 6.1 | 1.4 | 6.8 | 8.2 |
| CN(C)CCOc1ccc(/C(=C(/CCCl)c2ccccc2)c2ccccc2)cc1 [Toremifene] | 7.8 | 6 | 4.4 | 4.3 | 5.8 | 3.4 | 1.1 | 1.6 |
| CC(C)C[C@@H](C(=O)N[C@H](C(=O)OC1CCCC1)c1ccccc1)[C@H](O)C(=O)NO [Tosedostat] | 6.3 | 7.9 | 6.7 | 6.8 | 6.3 | 0.7 | 1.4 | 5.3 |
| Cc1cc(Nc2cc(N3CCN(C)CC3)nc(Sc3ccc(NC(=O)C4CC4)cc3)n2)n[nH]1 [Tozasertib] | 4.5 | 2.7 | 5.1 | 12.8 | 1.9 | 3.5 | 11.7 | 2.8 |
| CC1=C(/C=C/C(C)=C/C=C/C(C)=C/C(=O)O)C(C)(C)CCC1 [Tretinoin] | 0.7 | 0.8 | 0 | 0 | 0 | 0 | 5.7 | 0 |
| NC(=S)N/N=C/c1ncccc1N [Triapine] | 0.6 | 3.2 | 2.5 | 5.3 | 0.4 | 0 | 1.9 | 0 |

| SMILES | drug sensitivity score (FM-MEL-3) | drug sensitivity score (FM-MEL-6) | drug sensitivity score (SK-MEL-28) | drug sensitivity score (WM165) | drug sensitivity score (FM-MEL-2) | drug sensitivity score (WM852) | drug sensitivity score (Bowes) | drug sensitivity score (SK-MEL-2) |
| --- | --- | --- | --- | --- | --- | --- | --- | --- |
| O=c1[nH]c(=O)n([C@H]2C[C@H](O)[C@@H](CO)O2)cc1C(F)(F)F [Trifluridine] | 0.1 | 0.8 | 2.7 | 3.5 | 0 | 0 | 0 | 0 |
| O=C(CCCCCCC(=O)Nc1ccc([C@H]2O[C@@H](CSc3nc(-c4ccccc4)c(-c4ccccc4)o3)C[C@@H](c3ccc(CO)cc3)O2)cc1)NO [Tubacin] | 0 | 0.2 | 0 | 4.7 | 0.9 | 3.9 | 4.9 | 0.8 |
| CN1CCc2c(c3ccccc3n2Cc2ccc(C(=O)NO)cc2)C1 [Tubastatin A] | 0.6 | 0 | 1.3 | 2.2 | 0.6 | 0 | 2 | 1 |
| Cc1cc(Nc2ncnc3ccc(NC4=NC(C)(C)CO4)cc23)ccc1Oc1ccn2ncnc2c1 [Tucatinib] | 0 | 0 | 0 | 0 | 0.4 | 0 | 0 | 0 |
| Nc1cc(F)ccc1NC(=O)c1ccc(CNC(=O)/C=C/c2cccnc2)cc1 [Tucidinostat] | 7.7 | 7.2 | 5.6 | 7.8 | 5.1 | 0 | 1.9 | 5 |
| CN[C@@H]1C[C@H]2O[C@@](C)([C@@H]1OC)n1c3ccccc3c3c4c(c5c6ccccc6n2c5c31)C(=O)N[C@H]4O [UCN-01] | 24.7 | 14.5 | 13.4 | 23.5 | 13.5 | 19.9 | 17.5 | 16.2 |
| COC(=O)c1ccc2c(c1)[nH]c1ncnc(NCCCN3CCCCC3)c12 [UM729] | 2.5 | 0 | 0.6 | 0 | 1 | 0 | 0 | 0 |
| COc1cc2c(NC3CCN(C(C)C)CC3)nc(C3CCCCC3)nc2cc1OCCCN1CCCC1 [UNC0638] | 4.4 | 2.8 | 5.8 | 5.8 | 6.9 | 5.9 | 6.6 | 5.9 |
| COc1cc2c(NC3CCN(C(C)C)CC3)nc(N3CCC(F)(F)CC3)nc2cc1OCCCN1CCCC1 [UNC0642] | 0.7 | 2.5 | 2 | 4.5 | 4.5 | 5.1 | 4 | 4.1 |
| O=C(c1ccc(C(=O)N2CCC(N3CCCC3)CC2)c(Nc2ccccc2)c1)N1CCC(N2CCCC2)CC1 [UNC1215] | 0 | 0 | 0 | 0 | 0 | 0 | 0 | 0 |
| CCCCNc1ncc(C(=O)NCc2ccc(-n3ccnc3)cc2)c(NC2CCC(O)CC2)n1 (stereo unspecified) [UNC2881] | 0 | 0 | 0 | 0 | 2.2 | 0 | 0 | 0 |
| NC(=O)c1cccc(-c2cccc(OC(=O)NC3CCCCC3)c2)c1 [URB597] | 0 | 0 | 0 | 0 | 0 | 0 | 0 | 0 |
| CC[C@@H]1CN(C(=O)NCC(F)(F)F)C[C@@H]1c1cnc2cnc3[nH]ccc3n12 [Upadacitinib] | 3.1 | 3.6 | 0.3 | 0 | 3.6 | 2.1 | 0 | 0 |
| Cn1ncc(Cl)c1-c1cc(C(=O)N[C@H](CN)Cc2ccc(F)c(F)c2)oc1Cl [Uprosertib] | 0 | 0 | 0.5 | 1.1 | 1.2 | 0 | 0 | 0 |
| CS(=O)(=O)c1ccc(-c2cnc(N)c(C(=O)Nc3ccccc3)n2)cc1 [VE-821] | 1.6 | 0 | 0 | 0 | 0 | 2.6 | 3.1 | 0 |
| O=C(O)CC1CC(c2ccccc2)=NO1 (stereo unspecified) [VGX-1027] | 0 | 0 | 0 | 0 | 0 | 0 | 0 | 0 |
| C=CC(=O)N1CC/C(=C\c2ccc(F)c([N+](=O)[O-])c2)C(=O)/C(=C/c2ccc(F)c([N+](=O)[O-])c2)C1 [VLX1570] | 18.6 | 2.4 | 15.8 | 24 | 7.8 | 18.8 | 23.8 | 14.9 |
| CNC(=O)c1ccccc1Nc1cc(Nc2ccc(N3CCOCC3)cc2OC)ncc1C(F)(F)F [VS-4718] | 12.5 | 7.2 | 4.5 | 7.8 | 9.2 | 6.7 | 3 | 6.3 |
| CCCC(CCC)C(=O)O [Valproic acid] | 0.3 | 0 | 0 | 0 | 0.2 | 0 | 0 | 0 |
| CCCCC(=O)OCC(=O)[C@]1(O)Cc2c(O)c3c(c(O)c2[C@@H](O[C@H]2C[C@H](NC(=O)C(F)(F)F)[C@H](O)[C@H](C)O2)C1)C(=O)c1c(OC)cccc1C3=O [Valrubicin] | 7.2 | 9.2 | 8.3 | 21.5 | 6.8 | 5.1 | 6.4 | 8.5 |
| COc1cc2/c(=N/c3ccc(Br)cc3F)nc[nH]c2cc1OCC1CCN(C)CC1 [Vandetanib] | 0 | 0.2 | 0.4 | 0 | 0 | 0 | 1.3 | 0 |
